Results published in the NIST ThermoML archive (doi:10.1016/j.jct.2015.05.024).

Assay: xn = mol fraction of the nth substance listed
Settings: 100 kPa, Liquid; for speed of sound: Frequency=5 MHz, Pulse-echo method; for mass density: Vibrating tube method

OCCOCCOCCO [triethylene glycol] + O
Settings	mass density [kg/m3]	speed of sound [m/s]
293.15 K, x1 = 0.0107	1010.53	–
293.15 K, x1 = 0.02047	1020.73	–
293.15 K, x1 = 0.03972	1038.14	–
293.15 K, x1 = 0.04979	1045.97	–
293.15 K, x1 = 0.06996	1059.39	–
293.15 K, x1 = 0.09424	1072.14	–
293.15 K, x1 = 0.1481	1091	–
293.15 K, x1 = 0.1752	–	1744.6
293.15 K, x1 = 0.1869	–	1743.5
293.15 K, x1 = 0.2006	1101.53	–
293.15 K, x1 = 0.2052	–	1740.7
293.15 K, x1 = 0.2239	–	1736.8
293.15 K, x1 = 0.2502	1107.61	–
293.15 K, x1 = 0.2513	–	1730.1
293.15 K, x1 = 0.2755	–	1723.7
293.15 K, x1 = 0.2988	1111.51	–
293.15 K, x1 = 0.3023	–	1716.7
293.15 K, x1 = 0.3492	1114.3	–
293.15 K, x1 = 0.3754	–	1699
293.15 K, x1 = 0.3925	1116.06	–
293.15 K, x1 = 0.4338	–	1686.6
293.15 K, x1 = 0.4502	1117.81	–
293.15 K, x1 = 0.4877	1118.7	–
293.15 K, x1 = 0.5004	1118.97	–
293.15 K, x1 = 0.5151	–	1671.3
293.15 K, x1 = 0.5739	1120.23	–
293.15 K, x1 = 0.58	1120.32	–
293.15 K, x1 = 0.6233	–	1654.9
293.15 K, x1 = 0.6465	1121.14	–
293.15 K, x1 = 0.651	1121.19	–
293.15 K, x1 = 0.7008	1121.67	–
293.15 K, x1 = 0.7471	1122.06	–
293.15 K, x1 = 0.7677	1122.21	–
293.15 K, x1 = 0.7815	–	1641.2
293.15 K, x1 = 0.82	1122.57	–
293.15 K, x1 = 0.8623	1122.83	–
293.15 K, x1 = 0.8792	1122.93	–
293.15 K, x1 = 0.8924	–	1634.7
293.15 K, x1 = 0.8975	1123.03	–
293.15 K, x1 = 0.9203	1123.15	–
293.15 K, x1 = 0.9514	1123.32	–
293.15 K, x1 = 0.9634	–	1630.2
293.15 K, x1 = 0.9692	1123.41	–
293.15 K, x1 = 1	1123.56	1629
298.15 K, x1 = 0.000655	–	1499.7
298.15 K, x1 = 0.003093	–	1510.2
298.15 K, x1 = 0.008719	–	1533.1
298.15 K, x1 = 0.0107	1009.15	–
298.15 K, x1 = 0.01513	–	1557
298.15 K, x1 = 0.02047	1019.12	–
298.15 K, x1 = 0.02053	–	1575.4
298.15 K, x1 = 0.0297	–	1603.3
298.15 K, x1 = 0.03817	–	1625.7
298.15 K, x1 = 0.03972	1036.1	–
298.15 K, x1 = 0.04526	–	1642.1
298.15 K, x1 = 0.04979	1043.71	–
298.15 K, x1 = 0.05106	–	1654.1
298.15 K, x1 = 0.05839	–	1667.6
298.15 K, x1 = 0.0674	–	1681.9
298.15 K, x1 = 0.06996	1056.75	–
298.15 K, x1 = 0.0766	–	1694.1
298.15 K, x1 = 0.08268	–	1701
298.15 K, x1 = 0.08879	–	1707
298.15 K, x1 = 0.09424	1069.14	–
298.15 K, x1 = 0.09568	–	1712.9
298.15 K, x1 = 0.1024	–	1717.7
298.15 K, x1 = 0.1041	–	1718.8
298.15 K, x1 = 0.1099	–	1722.2
298.15 K, x1 = 0.1152	–	1724.8
298.15 K, x1 = 0.1205	–	1727
298.15 K, x1 = 0.127	–	1729.3
298.15 K, x1 = 0.1291	–	1729.9
298.15 K, x1 = 0.1383	–	1731.9
298.15 K, x1 = 0.1474	–	1733.1
298.15 K, x1 = 0.1481	1087.52	–
298.15 K, x1 = 0.1587	–	1733.7
298.15 K, x1 = 0.1675	–	1733.4
298.15 K, x1 = 0.1757	–	1732.8
298.15 K, x1 = 0.1834	–	1731.9
298.15 K, x1 = 0.2006	1097.87	–
298.15 K, x1 = 0.2026	–	1728.7
298.15 K, x1 = 0.221	–	1724.7
298.15 K, x1 = 0.2393	–	1720.1
298.15 K, x1 = 0.2502	1103.88	–
298.15 K, x1 = 0.2566	–	1715.5
298.15 K, x1 = 0.2906	–	1706.3
298.15 K, x1 = 0.2988	1107.76	–
298.15 K, x1 = 0.3492	1110.52	–
298.15 K, x1 = 0.3533	–	1690.5
298.15 K, x1 = 0.3925	1112.26	–
298.15 K, x1 = 0.427	–	1674.4
298.15 K, x1 = 0.4502	1113.99	–
298.15 K, x1 = 0.4877	1114.87	–
298.15 K, x1 = 0.5004	1115.13	–
298.15 K, x1 = 0.5126	–	1658.3
298.15 K, x1 = 0.5739	1116.38	–
298.15 K, x1 = 0.58	1116.47	–
298.15 K, x1 = 0.5907	–	1645.7
298.15 K, x1 = 0.6465	1117.3	–
298.15 K, x1 = 0.651	1117.35	–
298.15 K, x1 = 0.7008	1117.83	–
298.15 K, x1 = 0.7471	1118.22	–
298.15 K, x1 = 0.7663	–	1627.2
298.15 K, x1 = 0.7677	1118.37	–
298.15 K, x1 = 0.82	1118.72	–
298.15 K, x1 = 0.8623	1118.97	–
298.15 K, x1 = 0.8792	1119.06	–
298.15 K, x1 = 0.8917	–	1620
298.15 K, x1 = 0.8975	1119.16	–
298.15 K, x1 = 0.9203	1119.28	–
298.15 K, x1 = 0.9514	1119.44	–
298.15 K, x1 = 0.9628	–	1615.6
298.15 K, x1 = 0.9692	1119.53	–
298.15 K, x1 = 1	1119.69	1613.5
303.15 K, x1 = 0.001004	–	1513.5
303.15 K, x1 = 0.002763	–	1520.4
303.15 K, x1 = 0.007937	–	1539.9
303.15 K, x1 = 0.0107	1007.53	–
303.15 K, x1 = 0.01123	–	1551.5
303.15 K, x1 = 0.01908	–	1577
303.15 K, x1 = 0.02047	1017.29	–
303.15 K, x1 = 0.0244	–	1592.6
303.15 K, x1 = 0.03263	–	1614.3
303.15 K, x1 = 0.03972	1033.87	–
303.15 K, x1 = 0.0428	–	1637.2
303.15 K, x1 = 0.05068	–	1652.5
303.15 K, x1 = 0.05793	–	1664.7
303.15 K, x1 = 0.06625	–	1676.8
303.15 K, x1 = 0.07426	–	1686.6
303.15 K, x1 = 0.08178	–	1694.5
303.15 K, x1 = 0.08886	–	1700.8
303.15 K, x1 = 0.0936	–	1704.5
303.15 K, x1 = 0.09852	–	1707.8
303.15 K, x1 = 0.102	–	1709.9
303.15 K, x1 = 0.1059	–	1712.1
303.15 K, x1 = 0.1101	–	1714.1
303.15 K, x1 = 0.1102	–	1714.2
303.15 K, x1 = 0.1147	–	1716
303.15 K, x1 = 0.1193	–	1717.7
303.15 K, x1 = 0.1248	–	1719.3
303.15 K, x1 = 0.1295	–	1720.5
303.15 K, x1 = 0.1308	–	1720.7
303.15 K, x1 = 0.1337	–	1721.3
303.15 K, x1 = 0.1393	–	1722.1
303.15 K, x1 = 0.1423	–	1722.4
303.15 K, x1 = 0.1457	–	1722.6
303.15 K, x1 = 0.1695	–	1722.1
303.15 K, x1 = 0.1857	–	1719.9
303.15 K, x1 = 0.2042	–	1716.3
303.15 K, x1 = 0.2252	–	1711.2
303.15 K, x1 = 0.2499	–	1704.6
303.15 K, x1 = 0.3027	–	1690
303.15 K, x1 = 0.3394	–	1680.6
303.15 K, x1 = 0.4052	–	1665.7
303.15 K, x1 = 0.4916	–	1649
303.15 K, x1 = 0.6074	–	1630
303.15 K, x1 = 0.7552	–	1614
303.15 K, x1 = 0.8683	–	1607.4
303.15 K, x1 = 0.9616	–	1601.7
303.15 K, x1 = 1	–	1599.1
